Measured values published in ChEMBL document CHEMBL5291721, “A preclinical secondary pharmacology resource illuminates target-adverse drug reaction associations of marketed drugs” (Nat Commun, 2023).

Assays:
[1] = target: Voltage-dependent L-type calcium channel subunit alpha-1C (Rattus norvegicus, UniProt P22002); format: functional
[2] = target: T1, 5-hydroxytryptamine receptor 2C (Homo sapiens, UniProt P28335)
T1 sequence (P28335 whole entry): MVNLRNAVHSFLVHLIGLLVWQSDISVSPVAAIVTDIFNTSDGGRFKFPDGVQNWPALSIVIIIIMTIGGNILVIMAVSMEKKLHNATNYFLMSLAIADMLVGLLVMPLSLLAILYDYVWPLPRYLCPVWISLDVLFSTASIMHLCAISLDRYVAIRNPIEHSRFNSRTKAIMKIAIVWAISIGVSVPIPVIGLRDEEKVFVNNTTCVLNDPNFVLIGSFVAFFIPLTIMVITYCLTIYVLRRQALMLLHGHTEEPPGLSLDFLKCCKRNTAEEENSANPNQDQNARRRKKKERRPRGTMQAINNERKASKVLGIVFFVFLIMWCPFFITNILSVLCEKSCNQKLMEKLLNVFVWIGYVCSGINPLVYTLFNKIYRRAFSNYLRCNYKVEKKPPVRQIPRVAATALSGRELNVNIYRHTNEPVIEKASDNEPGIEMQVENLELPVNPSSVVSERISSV

Histamine H3 receptor = Histamine H3 receptor (Homo sapiens, UniProt Q9Y5N1)
Mu-type opioid receptor [3] = target: T2, Mu-type opioid receptor (Homo sapiens, UniProt P35372)
Cannabinoid receptor 1 = Cannabinoid receptor 1 (Homo sapiens, UniProt P21554)
Adenosine receptor A1 = target: T3, Adenosine receptor A1 (Homo sapiens, UniProt P30542)
T3 sequence (P30542 whole entry): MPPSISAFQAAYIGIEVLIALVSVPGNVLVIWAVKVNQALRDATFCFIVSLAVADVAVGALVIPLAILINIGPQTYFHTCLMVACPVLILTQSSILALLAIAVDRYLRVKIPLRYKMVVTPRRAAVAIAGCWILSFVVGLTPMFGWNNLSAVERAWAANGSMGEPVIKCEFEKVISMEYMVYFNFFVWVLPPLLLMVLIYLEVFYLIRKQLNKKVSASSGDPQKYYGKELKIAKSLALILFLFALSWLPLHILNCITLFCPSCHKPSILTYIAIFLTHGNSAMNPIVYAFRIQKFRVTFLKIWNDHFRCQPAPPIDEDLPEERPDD

Mu-type opioid receptor [4] = target: T2, Mu-type opioid receptor; assay: biochemical; format: functional
[5] = target: T4, Type-1 angiotensin II receptor (Homo sapiens, UniProt P30556)
T4 sequence (P30556 whole entry): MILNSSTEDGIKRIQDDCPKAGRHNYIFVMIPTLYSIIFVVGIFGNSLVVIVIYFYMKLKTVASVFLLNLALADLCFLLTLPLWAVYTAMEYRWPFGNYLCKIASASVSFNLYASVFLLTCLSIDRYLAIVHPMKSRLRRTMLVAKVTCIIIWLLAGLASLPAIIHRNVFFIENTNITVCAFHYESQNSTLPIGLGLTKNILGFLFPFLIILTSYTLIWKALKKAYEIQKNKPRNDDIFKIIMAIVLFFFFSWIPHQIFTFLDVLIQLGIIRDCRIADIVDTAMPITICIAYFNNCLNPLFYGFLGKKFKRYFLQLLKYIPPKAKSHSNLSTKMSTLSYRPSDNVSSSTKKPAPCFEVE

[6] = target: T5, Muscarinic acetylcholine receptor M1 (Homo sapiens, UniProt P11229); format: functional
T5 sequence (P11229 whole entry): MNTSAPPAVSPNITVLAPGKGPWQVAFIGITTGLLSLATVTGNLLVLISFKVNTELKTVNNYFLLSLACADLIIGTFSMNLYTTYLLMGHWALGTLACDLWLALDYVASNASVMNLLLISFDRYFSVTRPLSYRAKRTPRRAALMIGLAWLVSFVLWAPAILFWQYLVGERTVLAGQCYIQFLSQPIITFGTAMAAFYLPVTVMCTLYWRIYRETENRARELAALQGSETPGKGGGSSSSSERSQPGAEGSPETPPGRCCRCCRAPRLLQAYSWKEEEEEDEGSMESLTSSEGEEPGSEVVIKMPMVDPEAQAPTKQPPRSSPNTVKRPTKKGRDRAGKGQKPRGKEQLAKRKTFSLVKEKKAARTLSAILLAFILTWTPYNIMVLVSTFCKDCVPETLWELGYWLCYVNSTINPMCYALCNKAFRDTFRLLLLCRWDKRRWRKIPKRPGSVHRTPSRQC

[7] = target: Sodium-dependent noradrenaline transporter (Homo sapiens, UniProt P23975)
[8] = target: Beta-2 adrenergic receptor (Homo sapiens, UniProt P07550)
[9] = target: T6, 5-hydroxytryptamine receptor 3A (Homo sapiens, UniProt P46098); format: functional
T6 sequence (P46098 whole entry): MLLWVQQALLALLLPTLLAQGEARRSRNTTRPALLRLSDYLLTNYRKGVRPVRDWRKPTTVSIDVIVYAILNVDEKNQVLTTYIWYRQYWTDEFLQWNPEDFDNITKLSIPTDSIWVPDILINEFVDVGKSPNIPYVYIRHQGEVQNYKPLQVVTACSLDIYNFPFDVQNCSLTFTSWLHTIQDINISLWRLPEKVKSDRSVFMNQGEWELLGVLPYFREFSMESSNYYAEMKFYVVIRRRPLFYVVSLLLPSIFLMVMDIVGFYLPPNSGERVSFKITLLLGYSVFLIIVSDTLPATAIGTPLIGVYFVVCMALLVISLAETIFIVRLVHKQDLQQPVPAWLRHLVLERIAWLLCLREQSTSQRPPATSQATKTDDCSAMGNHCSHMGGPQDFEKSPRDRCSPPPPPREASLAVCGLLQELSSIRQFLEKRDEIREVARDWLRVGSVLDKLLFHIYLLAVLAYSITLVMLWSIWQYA

D(3) dopamine receptor = D(3) dopamine receptor (Homo sapiens, UniProt P35462)
[10] = target: 3',5'-cyclic-AMP phosphodiesterase 4D (Homo sapiens, UniProt Q08499); format: functional
Note: assay procedure not described here.

Sequence of Sodium-dependent noradrenaline transporter (P23975 whole entry): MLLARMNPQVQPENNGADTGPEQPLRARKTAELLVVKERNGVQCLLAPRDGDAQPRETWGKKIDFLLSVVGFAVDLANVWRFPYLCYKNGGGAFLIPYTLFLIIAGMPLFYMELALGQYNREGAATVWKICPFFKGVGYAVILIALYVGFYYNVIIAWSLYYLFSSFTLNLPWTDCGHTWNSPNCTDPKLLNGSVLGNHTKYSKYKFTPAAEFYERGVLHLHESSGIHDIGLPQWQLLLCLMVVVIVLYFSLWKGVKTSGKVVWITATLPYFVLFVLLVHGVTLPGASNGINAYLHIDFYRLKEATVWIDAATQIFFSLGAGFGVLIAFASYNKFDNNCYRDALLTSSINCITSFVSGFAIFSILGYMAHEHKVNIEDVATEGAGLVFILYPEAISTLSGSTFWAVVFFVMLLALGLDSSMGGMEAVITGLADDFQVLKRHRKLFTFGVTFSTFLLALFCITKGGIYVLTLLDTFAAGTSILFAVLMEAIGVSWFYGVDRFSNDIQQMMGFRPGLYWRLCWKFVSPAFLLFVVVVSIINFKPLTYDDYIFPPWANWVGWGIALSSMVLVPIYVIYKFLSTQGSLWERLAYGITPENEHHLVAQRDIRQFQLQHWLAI
Sequence of Cannabinoid receptor 1 (P21554 whole entry): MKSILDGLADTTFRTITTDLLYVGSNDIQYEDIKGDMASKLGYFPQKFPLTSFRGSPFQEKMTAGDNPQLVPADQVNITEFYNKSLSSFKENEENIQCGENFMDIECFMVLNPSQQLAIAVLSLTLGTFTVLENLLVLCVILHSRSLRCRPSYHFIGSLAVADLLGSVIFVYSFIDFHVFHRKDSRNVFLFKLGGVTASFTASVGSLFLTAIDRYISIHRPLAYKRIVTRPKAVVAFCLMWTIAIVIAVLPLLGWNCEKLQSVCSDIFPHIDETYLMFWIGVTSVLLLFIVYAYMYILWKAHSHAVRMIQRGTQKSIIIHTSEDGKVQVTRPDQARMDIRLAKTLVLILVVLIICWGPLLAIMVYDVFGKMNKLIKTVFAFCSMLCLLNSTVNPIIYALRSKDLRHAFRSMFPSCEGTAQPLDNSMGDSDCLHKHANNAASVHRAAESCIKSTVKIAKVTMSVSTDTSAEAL
Sequence of Voltage-dependent L-type calcium channel subunit alpha-1C (P22002 whole entry): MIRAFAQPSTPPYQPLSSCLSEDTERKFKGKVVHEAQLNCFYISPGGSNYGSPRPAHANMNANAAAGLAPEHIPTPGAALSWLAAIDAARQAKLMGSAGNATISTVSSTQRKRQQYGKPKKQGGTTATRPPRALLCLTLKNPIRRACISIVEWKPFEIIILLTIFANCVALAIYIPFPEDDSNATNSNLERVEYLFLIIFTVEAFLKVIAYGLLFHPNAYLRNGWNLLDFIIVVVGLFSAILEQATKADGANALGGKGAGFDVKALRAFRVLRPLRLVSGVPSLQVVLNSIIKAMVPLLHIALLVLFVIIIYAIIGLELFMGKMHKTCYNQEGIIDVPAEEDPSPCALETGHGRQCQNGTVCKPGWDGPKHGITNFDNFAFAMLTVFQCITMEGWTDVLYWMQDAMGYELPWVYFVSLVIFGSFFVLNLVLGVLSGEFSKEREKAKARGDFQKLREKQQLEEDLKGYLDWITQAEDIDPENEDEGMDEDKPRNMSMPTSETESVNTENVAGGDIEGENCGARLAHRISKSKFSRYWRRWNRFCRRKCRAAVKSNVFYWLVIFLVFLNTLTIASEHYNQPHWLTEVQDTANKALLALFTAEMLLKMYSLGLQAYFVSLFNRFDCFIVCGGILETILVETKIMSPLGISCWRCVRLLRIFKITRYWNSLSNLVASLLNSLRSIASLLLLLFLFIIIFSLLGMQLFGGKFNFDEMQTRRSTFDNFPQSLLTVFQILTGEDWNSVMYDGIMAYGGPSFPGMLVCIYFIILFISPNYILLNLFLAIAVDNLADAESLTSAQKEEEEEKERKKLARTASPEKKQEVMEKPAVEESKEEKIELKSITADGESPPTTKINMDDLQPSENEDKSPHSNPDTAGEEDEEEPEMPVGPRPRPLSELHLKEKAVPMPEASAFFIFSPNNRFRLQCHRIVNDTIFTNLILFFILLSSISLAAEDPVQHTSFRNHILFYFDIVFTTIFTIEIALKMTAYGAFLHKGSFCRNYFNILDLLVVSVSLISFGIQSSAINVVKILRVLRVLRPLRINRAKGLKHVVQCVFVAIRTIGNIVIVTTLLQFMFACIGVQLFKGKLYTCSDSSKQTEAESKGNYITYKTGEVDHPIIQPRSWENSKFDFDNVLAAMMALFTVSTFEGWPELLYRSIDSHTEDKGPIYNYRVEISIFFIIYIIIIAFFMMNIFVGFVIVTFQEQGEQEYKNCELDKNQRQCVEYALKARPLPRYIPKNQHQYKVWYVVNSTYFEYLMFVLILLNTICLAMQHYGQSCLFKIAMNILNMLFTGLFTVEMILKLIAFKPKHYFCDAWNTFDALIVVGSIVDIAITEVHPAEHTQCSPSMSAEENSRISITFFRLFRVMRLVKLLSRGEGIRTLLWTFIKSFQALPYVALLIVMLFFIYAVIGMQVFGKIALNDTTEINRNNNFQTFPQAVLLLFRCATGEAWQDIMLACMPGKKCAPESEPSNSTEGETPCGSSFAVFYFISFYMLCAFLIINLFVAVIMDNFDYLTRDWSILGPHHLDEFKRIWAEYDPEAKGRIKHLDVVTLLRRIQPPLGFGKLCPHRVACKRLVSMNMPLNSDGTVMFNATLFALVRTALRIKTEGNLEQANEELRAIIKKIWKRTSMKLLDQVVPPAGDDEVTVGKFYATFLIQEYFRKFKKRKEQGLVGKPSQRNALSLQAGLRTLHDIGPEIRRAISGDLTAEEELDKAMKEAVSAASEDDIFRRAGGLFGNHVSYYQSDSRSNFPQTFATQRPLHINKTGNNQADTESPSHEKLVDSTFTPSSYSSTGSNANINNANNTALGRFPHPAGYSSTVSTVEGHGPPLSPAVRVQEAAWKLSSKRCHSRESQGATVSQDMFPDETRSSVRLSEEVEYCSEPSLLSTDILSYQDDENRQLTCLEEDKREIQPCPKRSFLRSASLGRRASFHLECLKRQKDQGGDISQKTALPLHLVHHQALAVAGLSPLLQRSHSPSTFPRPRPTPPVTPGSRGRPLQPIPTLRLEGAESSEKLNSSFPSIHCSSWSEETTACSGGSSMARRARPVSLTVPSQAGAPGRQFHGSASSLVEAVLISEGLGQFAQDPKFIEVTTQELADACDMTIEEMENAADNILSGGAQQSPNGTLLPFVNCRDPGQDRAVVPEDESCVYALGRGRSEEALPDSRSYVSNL
T2 sequence (P35372 whole entry): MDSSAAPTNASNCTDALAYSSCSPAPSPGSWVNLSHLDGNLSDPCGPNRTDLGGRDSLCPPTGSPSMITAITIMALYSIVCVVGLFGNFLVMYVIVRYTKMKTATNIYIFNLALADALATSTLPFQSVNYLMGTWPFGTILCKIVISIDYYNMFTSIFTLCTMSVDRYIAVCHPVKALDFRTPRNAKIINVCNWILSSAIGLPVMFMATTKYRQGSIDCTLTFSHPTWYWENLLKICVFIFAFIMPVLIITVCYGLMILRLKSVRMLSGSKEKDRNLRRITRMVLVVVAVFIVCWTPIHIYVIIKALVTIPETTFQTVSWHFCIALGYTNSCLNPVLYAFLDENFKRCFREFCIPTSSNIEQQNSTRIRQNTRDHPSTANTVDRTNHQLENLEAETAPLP
Sequence of 3',5'-cyclic-AMP phosphodiesterase 4D (Q08499 whole entry): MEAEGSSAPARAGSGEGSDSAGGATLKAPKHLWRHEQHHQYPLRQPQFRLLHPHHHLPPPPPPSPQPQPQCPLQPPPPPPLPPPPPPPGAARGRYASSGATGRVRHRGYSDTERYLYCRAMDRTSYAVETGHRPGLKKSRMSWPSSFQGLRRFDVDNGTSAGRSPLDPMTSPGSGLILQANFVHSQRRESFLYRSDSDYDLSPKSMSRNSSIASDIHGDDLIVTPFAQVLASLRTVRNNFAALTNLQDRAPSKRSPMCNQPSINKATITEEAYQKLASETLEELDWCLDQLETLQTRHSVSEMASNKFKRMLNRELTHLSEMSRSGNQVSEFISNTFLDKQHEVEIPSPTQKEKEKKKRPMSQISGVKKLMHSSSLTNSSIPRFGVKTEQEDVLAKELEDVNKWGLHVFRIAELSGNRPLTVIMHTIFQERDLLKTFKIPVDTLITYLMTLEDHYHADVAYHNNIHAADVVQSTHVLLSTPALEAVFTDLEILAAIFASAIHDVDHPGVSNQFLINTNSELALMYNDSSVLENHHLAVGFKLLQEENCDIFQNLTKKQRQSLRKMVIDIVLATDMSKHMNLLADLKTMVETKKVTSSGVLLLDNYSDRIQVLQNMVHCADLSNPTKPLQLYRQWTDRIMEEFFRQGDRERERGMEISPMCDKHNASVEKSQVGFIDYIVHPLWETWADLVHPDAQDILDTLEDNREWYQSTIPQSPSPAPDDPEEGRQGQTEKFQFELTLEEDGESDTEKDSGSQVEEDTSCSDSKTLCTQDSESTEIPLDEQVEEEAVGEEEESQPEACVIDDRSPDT
Sequence of Beta-2 adrenergic receptor (P07550 whole entry): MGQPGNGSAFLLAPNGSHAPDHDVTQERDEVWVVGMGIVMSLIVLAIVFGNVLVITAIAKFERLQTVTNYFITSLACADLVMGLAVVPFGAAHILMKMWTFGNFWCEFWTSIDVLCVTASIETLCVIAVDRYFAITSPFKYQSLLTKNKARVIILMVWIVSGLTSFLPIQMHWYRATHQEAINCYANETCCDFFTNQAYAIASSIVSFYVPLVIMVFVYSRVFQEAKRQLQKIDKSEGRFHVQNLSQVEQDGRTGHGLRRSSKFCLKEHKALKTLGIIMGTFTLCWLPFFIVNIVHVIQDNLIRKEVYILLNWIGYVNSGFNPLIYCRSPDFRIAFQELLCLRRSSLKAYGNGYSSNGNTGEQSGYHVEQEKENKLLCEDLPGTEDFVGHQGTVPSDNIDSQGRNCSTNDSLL

SMILES	AC50 [1] [µM]	AC50 [2] [µM]	AC50 (Histamine H3 receptor) [µM]	AC50 (Mu-type opioid receptor [3]) [µM]	AC50 (Cannabinoid receptor 1) [µM]	AC50 (Adenosine receptor A1) [µM]	AC50 (Mu-type opioid receptor [4]) [µM]	AC50 [5] [µM]	AC50 [6] [µM]	AC50 [7] [µM]	AC50 [8] [µM]	AC50 [9] [µM]	AC50 (D(3) dopamine receptor) [µM]	AC50 [10] [µM]
CC(C(=O)O)c1ccc(N2Cc3ccccc3C2=O)cc1 (stereo unspecified) [INDOPROFEN]	> 30	> 30	> 30	> 30	> 30	> 30	> 30	> 30	> 30	> 30	> 30	> 30	> 30	> 30
CO[C@@H]1[C@@H](O[C@@H]2O[C@H](C)[C@@H](O[C@H]3C[C@@](C)(O)[C@@H](OC(=O)CC(C)C)[C@H](C)O3)[C@H](N(C)C)[C@H]2O)[C@@H](CC=O)C[C@@H](C)[C@@H](O)/C=C/C=C/C[C@@H](C)OC(=O)C[C@H]1OC(C)=O [JOSAMYCIN]	> 10	> 30		> 30	> 10	> 10	> 30	> 10	> 10	> 10	> 10	> 30	> 30	> 30
Cc1cccc(C(C)c2cnc[nH]2)c1C (stereo unspecified) [MEDETOMIDINE]	> 30	> 30	> 30	> 30	> 30	> 30	> 30	> 30	> 30	> 30	> 30	> 30	> 30	> 30
C[C@H](N)[C@H](O)c1cccc(O)c1 [METARAMINOL]	> 10	> 30		> 30	> 10	> 10	> 30	> 10	> 10	> 10	> 30	> 30	> 30	> 30
CCCC(C)C1(CC)C(=O)NC(=O)NC1=O (stereo unspecified) [PENTOBARBITAL]	> 10	> 30		> 30	> 10	> 10	> 30	> 10	> 30	> 10	> 10	> 30	> 30	> 30
C#C[C@]1(O)CC[C@H]2[C@@H]3CCc4cc(OC5CCCC5)ccc4[C@H]3CC[C@@]21C [QUINESTROL]	> 10	> 30		> 30	> 10	> 10	> 30	> 10	> 10	> 10	> 10	> 30	> 30	> 30
COC(=O)[C@H]1[C@H]2C[C@@H]3c4[nH]c5cc(OC)ccc5c4CCN3C[C@H]2C[C@@H](OC(=O)/C=C/c2cc(OC)c(OC)c(OC)c2)[C@@H]1OC [RESCINNAMINE]	5.16	> 30		> 10	> 10	> 30	> 30	> 10	> 10	> 30	> 10	> 30	> 30	> 30
C[C@H](CSC(=O)c1ccccc1)C(=O)N1C[C@@H](Sc2ccccc2)C[C@H]1C(=O)O [ZOFENOPRIL]	> 10	> 30		> 30	> 10	> 10	> 30	> 10	> 10	> 10	> 10	> 30	> 30	> 10
